Assay [1] addresses Adenylate kinase 2, mitochondrial (Homo sapiens, UniProt P54819).
The target in assay [2] is Serine/threonine-protein kinase B-raf (Homo sapiens, UniProt P15056).
Assay [3] has as its target Cyclin-dependent kinase 12 (Homo sapiens, UniProt Q9NYV4).
Assay [4] addresses Cyclin-dependent kinase 4 (Homo sapiens, UniProt P11802).
Assay [5] addresses Cyclin-dependent kinase 5 (Homo sapiens, UniProt Q00535).
Assay [6] deals with Dual specificity protein kinase CLK1 (Homo sapiens, UniProt P49759).
Assay [7] has as its target Casein kinase I isoform epsilon (Homo sapiens, UniProt P49674).
The target of another assay is Ephrin type-A receptor 4 (Homo sapiens, UniProt P54764).
Assay [8] has as its target Serine/threonine-protein kinase/endoribonuclease IRE1 (Homo sapiens, UniProt O75460).
Assay [9] has as its target Glycogen synthase kinase-3 beta (Homo sapiens, UniProt P49841).
The target of assay [10] is Insulin-like growth factor 1 receptor (Homo sapiens, UniProt P08069).
Assay [11] concerns the target Mitogen-activated protein kinase 10 (Homo sapiens, UniProt P53779).
The target of assay [12] is T1, Mitogen-activated protein kinase 15 (Homo sapiens, UniProt Q8TD08).
T1 sequence (Q8TD08 whole entry): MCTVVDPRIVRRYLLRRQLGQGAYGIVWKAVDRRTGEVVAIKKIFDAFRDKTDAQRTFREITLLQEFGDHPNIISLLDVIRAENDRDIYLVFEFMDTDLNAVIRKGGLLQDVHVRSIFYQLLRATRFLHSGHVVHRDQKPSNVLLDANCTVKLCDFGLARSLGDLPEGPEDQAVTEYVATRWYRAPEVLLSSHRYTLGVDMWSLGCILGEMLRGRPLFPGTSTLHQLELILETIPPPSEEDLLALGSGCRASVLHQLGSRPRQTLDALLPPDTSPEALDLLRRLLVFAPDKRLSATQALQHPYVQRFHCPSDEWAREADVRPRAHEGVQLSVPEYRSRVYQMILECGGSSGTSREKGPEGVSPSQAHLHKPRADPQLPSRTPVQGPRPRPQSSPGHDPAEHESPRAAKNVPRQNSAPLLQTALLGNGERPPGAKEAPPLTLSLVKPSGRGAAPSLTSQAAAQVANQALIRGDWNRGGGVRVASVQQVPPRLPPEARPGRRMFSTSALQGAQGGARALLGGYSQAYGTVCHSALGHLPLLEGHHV

The target in assay [13] is T2, cGMP-dependent protein kinase 1 (Homo sapiens, UniProt Q13976).
T2 sequence (Q13976 whole entry): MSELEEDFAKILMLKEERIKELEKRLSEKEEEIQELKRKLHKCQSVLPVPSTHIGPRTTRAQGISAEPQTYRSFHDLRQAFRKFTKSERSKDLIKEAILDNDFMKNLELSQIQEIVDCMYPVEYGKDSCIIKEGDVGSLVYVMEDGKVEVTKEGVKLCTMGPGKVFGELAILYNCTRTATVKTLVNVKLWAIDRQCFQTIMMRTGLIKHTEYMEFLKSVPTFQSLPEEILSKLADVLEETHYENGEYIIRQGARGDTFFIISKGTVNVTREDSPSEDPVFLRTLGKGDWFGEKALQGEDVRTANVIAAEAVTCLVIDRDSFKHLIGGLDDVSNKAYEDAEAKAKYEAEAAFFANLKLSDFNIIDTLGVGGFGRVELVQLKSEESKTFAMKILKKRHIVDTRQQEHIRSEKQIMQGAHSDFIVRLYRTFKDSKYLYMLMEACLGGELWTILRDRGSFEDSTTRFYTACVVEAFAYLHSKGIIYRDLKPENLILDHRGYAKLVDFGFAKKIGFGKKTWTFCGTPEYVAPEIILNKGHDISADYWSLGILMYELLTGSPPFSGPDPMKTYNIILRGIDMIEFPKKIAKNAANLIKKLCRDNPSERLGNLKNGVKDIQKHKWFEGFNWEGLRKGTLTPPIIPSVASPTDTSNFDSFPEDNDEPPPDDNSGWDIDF

In assay [14] the target is T3, Signal recognition particle receptor subunit alpha (Homo sapiens, UniProt P08240).
T3 sequence (P08240 whole entry): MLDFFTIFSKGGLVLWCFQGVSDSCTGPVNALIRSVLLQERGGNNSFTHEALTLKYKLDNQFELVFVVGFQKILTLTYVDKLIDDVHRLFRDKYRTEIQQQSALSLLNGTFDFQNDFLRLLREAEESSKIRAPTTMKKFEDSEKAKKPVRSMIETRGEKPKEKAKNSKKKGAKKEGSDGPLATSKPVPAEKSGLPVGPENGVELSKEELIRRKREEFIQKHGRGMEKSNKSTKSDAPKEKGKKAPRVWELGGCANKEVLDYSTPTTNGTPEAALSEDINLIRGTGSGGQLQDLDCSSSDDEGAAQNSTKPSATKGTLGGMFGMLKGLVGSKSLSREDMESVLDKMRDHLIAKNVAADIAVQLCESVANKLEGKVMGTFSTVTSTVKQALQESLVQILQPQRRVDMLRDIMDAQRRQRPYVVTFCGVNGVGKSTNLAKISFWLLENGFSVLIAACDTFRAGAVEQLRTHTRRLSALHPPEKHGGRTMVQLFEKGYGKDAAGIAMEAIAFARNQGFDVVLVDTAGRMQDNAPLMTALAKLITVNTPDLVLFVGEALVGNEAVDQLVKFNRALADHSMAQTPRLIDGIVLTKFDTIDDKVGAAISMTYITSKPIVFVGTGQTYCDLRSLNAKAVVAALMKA

Assay [15] has as its target T4, EKC/KEOPS complex subunit TP53RK (Homo sapiens, UniProt Q96S44).
T4 sequence (Q96S44 whole entry): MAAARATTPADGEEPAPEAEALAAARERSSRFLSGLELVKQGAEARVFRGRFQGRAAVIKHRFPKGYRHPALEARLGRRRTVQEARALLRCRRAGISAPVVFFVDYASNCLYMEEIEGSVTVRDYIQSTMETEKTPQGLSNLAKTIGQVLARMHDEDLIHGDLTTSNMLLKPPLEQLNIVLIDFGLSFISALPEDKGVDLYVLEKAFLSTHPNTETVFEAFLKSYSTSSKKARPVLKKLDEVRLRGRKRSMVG

Structures can show the parent of a compound that is named as a salt. Activity calls are given as the source filed them. Rule as the data show it, for most assays here: actives have a measured Kd and inactives only a lower limit.
Also: in the data inactive means no Kd found up to 30 µM.

Chain of Glycogen synthase kinase-3 beta (P49841 whole entry): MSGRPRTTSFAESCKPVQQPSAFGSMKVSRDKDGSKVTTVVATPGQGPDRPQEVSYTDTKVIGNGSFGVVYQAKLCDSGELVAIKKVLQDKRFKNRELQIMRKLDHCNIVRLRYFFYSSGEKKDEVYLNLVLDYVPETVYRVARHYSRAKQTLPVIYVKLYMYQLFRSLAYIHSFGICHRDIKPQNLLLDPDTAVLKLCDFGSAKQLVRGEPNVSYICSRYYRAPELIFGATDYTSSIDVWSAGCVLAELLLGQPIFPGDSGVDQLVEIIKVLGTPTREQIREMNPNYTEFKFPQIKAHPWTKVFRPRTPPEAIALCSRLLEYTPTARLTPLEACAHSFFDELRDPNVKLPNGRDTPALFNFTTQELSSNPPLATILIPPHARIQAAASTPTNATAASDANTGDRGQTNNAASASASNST
Chain of Cyclin-dependent kinase 5 (Q00535 whole entry): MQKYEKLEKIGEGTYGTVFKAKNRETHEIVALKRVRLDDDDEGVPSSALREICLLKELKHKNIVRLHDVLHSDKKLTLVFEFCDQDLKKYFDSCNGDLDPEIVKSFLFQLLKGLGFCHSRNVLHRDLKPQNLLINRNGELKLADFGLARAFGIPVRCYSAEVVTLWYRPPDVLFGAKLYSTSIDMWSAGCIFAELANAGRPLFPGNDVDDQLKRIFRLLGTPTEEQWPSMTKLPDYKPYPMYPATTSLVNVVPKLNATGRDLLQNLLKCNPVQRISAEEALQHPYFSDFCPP
Chain of Cyclin-dependent kinase 12 (Q9NYV4 whole entry): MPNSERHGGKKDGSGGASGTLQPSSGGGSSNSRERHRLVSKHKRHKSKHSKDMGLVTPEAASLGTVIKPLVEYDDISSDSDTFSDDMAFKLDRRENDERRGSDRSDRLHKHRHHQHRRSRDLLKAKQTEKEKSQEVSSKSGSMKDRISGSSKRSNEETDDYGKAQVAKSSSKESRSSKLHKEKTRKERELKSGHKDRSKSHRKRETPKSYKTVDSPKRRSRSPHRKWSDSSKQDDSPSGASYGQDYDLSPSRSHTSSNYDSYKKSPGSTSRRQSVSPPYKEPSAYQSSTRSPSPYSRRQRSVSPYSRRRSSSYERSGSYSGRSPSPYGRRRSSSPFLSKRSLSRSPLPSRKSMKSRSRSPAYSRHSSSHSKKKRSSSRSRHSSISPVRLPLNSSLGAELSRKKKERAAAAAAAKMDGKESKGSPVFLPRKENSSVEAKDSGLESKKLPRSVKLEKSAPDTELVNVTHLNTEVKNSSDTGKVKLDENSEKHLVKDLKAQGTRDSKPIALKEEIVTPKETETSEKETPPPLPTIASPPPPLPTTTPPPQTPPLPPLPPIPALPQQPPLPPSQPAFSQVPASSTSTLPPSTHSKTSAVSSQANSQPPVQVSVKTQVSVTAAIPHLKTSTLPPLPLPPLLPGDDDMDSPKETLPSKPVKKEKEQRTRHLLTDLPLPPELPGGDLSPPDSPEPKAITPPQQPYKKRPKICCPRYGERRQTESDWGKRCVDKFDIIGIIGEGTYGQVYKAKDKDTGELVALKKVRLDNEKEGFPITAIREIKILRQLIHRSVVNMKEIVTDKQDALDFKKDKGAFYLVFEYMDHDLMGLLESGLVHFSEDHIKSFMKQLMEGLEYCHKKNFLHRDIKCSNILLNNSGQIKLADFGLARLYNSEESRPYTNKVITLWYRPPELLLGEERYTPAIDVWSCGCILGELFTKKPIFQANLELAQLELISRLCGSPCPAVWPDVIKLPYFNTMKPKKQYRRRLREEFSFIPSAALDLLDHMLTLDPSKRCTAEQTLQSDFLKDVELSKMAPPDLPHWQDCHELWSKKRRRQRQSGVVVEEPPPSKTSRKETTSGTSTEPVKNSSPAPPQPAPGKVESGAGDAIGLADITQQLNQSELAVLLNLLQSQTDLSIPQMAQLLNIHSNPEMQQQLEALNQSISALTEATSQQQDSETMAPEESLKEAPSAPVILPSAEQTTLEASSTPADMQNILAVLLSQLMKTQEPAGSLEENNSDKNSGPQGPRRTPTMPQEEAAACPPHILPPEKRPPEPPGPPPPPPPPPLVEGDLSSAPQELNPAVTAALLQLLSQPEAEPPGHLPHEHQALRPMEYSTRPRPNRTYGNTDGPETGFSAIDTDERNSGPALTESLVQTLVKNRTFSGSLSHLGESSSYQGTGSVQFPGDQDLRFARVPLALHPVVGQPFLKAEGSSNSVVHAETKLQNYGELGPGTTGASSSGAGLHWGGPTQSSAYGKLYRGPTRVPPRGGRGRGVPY
Chain of Casein kinase I isoform epsilon (P49674 whole entry, canonical isoform): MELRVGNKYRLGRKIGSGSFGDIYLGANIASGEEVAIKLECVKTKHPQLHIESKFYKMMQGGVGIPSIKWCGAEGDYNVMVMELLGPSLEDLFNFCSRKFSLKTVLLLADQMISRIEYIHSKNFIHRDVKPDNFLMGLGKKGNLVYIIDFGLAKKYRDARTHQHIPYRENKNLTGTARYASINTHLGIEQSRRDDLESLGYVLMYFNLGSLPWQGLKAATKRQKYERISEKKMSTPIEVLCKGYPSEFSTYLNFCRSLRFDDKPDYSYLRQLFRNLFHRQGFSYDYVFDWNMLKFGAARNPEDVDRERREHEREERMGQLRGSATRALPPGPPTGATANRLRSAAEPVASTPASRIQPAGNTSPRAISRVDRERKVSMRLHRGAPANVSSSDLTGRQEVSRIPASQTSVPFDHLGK
Chain of Mitogen-activated protein kinase 10 (P53779 whole entry): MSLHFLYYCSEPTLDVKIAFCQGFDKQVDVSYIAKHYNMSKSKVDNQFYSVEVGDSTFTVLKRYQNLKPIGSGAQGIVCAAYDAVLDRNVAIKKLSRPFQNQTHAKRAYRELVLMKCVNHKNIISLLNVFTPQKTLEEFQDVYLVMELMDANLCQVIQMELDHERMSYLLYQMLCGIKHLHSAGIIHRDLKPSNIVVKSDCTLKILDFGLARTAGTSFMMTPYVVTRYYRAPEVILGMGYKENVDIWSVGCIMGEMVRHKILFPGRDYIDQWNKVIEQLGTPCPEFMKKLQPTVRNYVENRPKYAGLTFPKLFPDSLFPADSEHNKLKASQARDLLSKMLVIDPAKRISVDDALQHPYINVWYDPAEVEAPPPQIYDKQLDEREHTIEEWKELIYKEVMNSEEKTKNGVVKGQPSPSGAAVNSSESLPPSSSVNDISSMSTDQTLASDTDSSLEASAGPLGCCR
Chain of Ephrin type-A receptor 4 (P54764 whole entry): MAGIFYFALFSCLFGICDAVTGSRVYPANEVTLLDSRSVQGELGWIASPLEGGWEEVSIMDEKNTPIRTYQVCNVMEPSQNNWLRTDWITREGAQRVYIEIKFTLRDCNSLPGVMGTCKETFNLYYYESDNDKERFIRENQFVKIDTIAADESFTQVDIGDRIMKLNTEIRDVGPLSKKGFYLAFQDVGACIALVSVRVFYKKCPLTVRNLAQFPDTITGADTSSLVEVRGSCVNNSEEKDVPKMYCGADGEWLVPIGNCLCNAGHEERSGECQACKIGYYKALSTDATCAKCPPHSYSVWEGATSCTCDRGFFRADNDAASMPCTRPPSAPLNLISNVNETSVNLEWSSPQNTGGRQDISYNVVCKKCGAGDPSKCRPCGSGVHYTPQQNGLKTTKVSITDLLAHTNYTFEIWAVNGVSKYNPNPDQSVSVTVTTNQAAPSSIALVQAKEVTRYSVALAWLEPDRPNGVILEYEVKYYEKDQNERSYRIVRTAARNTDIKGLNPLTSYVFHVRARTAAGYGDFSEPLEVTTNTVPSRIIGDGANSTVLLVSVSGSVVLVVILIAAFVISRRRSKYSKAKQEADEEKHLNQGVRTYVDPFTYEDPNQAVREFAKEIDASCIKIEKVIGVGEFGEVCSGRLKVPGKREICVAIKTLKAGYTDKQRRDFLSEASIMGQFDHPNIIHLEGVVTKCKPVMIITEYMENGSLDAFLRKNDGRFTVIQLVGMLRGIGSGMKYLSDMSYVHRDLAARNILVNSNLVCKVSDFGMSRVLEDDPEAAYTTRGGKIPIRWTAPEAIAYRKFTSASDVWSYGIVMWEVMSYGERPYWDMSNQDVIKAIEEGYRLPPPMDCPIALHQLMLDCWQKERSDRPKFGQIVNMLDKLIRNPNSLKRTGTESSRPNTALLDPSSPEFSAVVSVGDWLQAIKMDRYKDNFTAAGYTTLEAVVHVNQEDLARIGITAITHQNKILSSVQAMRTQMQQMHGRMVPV
Chain of Serine/threonine-protein kinase B-raf (P15056 whole entry): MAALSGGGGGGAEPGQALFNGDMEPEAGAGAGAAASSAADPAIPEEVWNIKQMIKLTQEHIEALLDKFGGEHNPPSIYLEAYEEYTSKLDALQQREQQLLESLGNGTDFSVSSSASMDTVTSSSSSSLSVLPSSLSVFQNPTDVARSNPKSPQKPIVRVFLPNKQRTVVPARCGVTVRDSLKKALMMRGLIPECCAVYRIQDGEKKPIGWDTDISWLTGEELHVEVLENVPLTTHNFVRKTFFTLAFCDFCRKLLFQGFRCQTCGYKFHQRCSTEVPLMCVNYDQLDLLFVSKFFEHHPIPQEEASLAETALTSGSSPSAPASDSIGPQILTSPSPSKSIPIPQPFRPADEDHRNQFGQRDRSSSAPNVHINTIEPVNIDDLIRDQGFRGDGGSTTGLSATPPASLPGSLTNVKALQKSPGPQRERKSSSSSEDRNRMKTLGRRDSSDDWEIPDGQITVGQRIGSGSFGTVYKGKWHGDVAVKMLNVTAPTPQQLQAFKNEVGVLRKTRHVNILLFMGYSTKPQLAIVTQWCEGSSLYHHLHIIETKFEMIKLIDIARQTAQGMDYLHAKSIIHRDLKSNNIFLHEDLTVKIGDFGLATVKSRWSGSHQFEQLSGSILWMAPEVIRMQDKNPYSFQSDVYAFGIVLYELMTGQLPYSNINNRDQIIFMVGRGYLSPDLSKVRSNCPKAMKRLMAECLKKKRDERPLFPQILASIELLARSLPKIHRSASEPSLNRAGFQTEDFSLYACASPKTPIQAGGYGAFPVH

For the compound `CCNC(=O)C#Cc1ccc2c(c1)NC(=O)/C2=C(\Nc1ccc(CN(C)C)cc1)c1ccccc1`, the Kd in [1], in [2], in assay [3], in assay [4], in assay [5] and in assay [6] was > 30 µM (inactive) in each case. The Kd (in assay [7]; on Ephrin type-A receptor 4; in assay [8]; in [9]; in assay [10]; in assay [11]) was > 30 µM (inactive) in each case. Besides, the Kd in [12], in [13], in assay [14] and in [15] was > 30 µM (inactive) in each case.

Turning to `C=CC(=O)N1CCC[C@H](n2c(=O)n(-c3ccc(Oc4ccccc4)cc3)c3c(N)ncnc32)C1`, the Kd in assay [1], in assay [2], in [3], in assay [4], in [5] and in [6] was > 30 µM (inactive) in each case. For the same compound, the Kd (in assay [7]; on Ephrin type-A receptor 4; in assay [8]; in assay [9]; in [10]; in assay [11]) was > 30 µM (inactive) in each case. Also, the Kd in assay [12], in assay [13], in [14] and in [15] was > 30 µM (inactive) throughout.

`CCS(=O)(=O)N1CCN(c2ccc(Nc3ncc(C(N)=O)c(NC4CC4)n3)cc2)CC1` [Cerdulatinib Hydrochloride]: the Kd in assay [1], in assay [2], in assay [3], in assay [4], in [5] and in assay [6] was > 30 µM (inactive) throughout. Besides, the Kd (in assay [7]; on Ephrin type-A receptor 4; in assay [8]; in assay [9]; in assay [10]; in assay [12]) was > 30 µM (inactive) throughout. For the same compound, the Kd in [13], in assay [14] and in [15] was > 30 µM (inactive) throughout.

Regarding `CCn1cc(-c2ccnc3[nH]c(-c4cccc(CN(C)C)c4)cc23)c(-c2ccc(NC(=O)N(C)C)cc2)n1` [GSK-1070916], the Kd in assay [1], in assay [2], in assay [3], in assay [4], in assay [5] and in assay [6] was > 30 µM (inactive) in each case. Also, the Kd (in assay [7]; on Ephrin type-A receptor 4; in assay [8]; in assay [9]; in [10]; in assay [11]) was > 30 µM (inactive) each time. For the same compound, the Kd in assay [12], in [13] and in [15] was > 30 µM (inactive) each time.

With `FC(F)(F)c1ccc(/C=C/c2nc(COc3ccc(CCCCn4ccnn4)cc3)co2)cc1` [MUBRITINIB], the Kd in assay [1], in assay [2], in assay [3], in assay [5], in assay [6] and in [7] was > 30 µM (inactive) in each case. Also, the Kd (at Ephrin type-A receptor 4; in assay [8]; in [9]; in [10]; in assay [11]; in assay [12]) was > 30 µM (inactive) each time. For the same compound, the Kd in assay [13], in assay [14] and in [15] was > 30 µM (inactive) in each case.

With `CCOc1cc2ncc(C#N)c(Nc3ccc(F)c(Cl)c3)c2cc1NC(=O)/C=C/CN(C)C` [PELITINIB], the Kd in assay [1], in assay [2], in assay [3], in assay [4], in assay [5] and in [6] was > 30 µM (inactive) in each case. Also, the Kd in [7] is 1.48 µM (active); at Ephrin type-A receptor 4, > 30 µM (inactive); in assay [8], > 30 µM (inactive); in [9], > 30 µM (inactive); in assay [10], > 30 µM (inactive); in [11] it was > 30 µM (inactive). Moreover, the Kd in assay [12], in assay [13] and in [15] was > 30 µM (inactive) in each case.

On to `N#CC1(c2ccc(NC(=O)c3cccnc3NCc3ccncc3)cc2)CCCC1` [RIVOCERANIB], for which the Kd in assay [1], in assay [2], in assay [3], in assay [4], in assay [5] and in assay [6] was > 30 µM (inactive) each time. Moreover, the Kd (in assay [7]; on Ephrin type-A receptor 4; in assay [8]; in assay [9]; in assay [10]; in assay [11]) was > 30 µM (inactive) each time. Besides, the Kd in assay [12], in assay [13] and in assay [15] was > 30 µM (inactive) each time.

For the origin of these results see ChEMBL document CHEMBL3991601, “The target landscape of clinical kinase drugs” (Science, 2017).
